Each structure is given as a SMILES string.

Sequence of URAT-1 transporter (Q96S37 other isoform, or with tags, fused parts or gaps): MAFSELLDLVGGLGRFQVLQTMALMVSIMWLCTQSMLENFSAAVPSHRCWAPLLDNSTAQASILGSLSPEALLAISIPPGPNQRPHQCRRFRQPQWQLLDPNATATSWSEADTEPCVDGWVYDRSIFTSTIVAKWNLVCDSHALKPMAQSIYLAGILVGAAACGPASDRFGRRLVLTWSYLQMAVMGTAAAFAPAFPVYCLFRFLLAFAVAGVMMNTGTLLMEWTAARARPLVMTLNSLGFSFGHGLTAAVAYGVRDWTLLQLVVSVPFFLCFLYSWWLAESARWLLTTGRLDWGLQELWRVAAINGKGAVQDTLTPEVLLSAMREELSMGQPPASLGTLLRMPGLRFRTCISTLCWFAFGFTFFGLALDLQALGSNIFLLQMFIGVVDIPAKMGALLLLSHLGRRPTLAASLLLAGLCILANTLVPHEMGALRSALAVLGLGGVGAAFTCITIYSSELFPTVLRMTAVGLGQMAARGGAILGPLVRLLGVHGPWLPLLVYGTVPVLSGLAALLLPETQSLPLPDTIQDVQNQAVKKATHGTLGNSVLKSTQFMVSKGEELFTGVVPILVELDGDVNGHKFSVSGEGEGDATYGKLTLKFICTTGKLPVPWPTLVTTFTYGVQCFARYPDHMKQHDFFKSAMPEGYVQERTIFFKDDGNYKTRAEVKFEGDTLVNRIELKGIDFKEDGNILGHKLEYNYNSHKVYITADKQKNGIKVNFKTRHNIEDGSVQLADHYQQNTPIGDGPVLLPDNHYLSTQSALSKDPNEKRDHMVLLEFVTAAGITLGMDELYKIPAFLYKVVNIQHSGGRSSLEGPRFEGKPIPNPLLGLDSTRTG

The assay deals with URAT-1 transporter (Homo sapiens (Human), UniProt Q96S37). The assay is described as follows: URAT-1 inhibitor activity: [14C]-uric acid uptake in CHO-URAT1(L)GFP#8 (CHO#8) cells, scintillation proximity. It counts as cell-based. The conditions noted are these: inhibition of [14C]-uric acid (30 nM) uptake into CHO#8 cells; compound 0 to 10 μM; 4 parameter logistic fit. In a few lines:
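CHO cells stably expressing human URAT1 long isoform–eGFP fusion, pre-incubated 1 h in chloride-containing buffer pH 7.4, then given 30 nM [14C]-uric acid with compound (0–10 μM, 0.25% DMSO) in chloride-free gluconate buffer pH 7.4. Uptake measured by scintillation proximity on Cytostar plates.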
`Cc1cc(Oc2ccc(S(=O)(=O)Nc3ccc(F)cn3)cc2C#N)ccc1C#N` [Example 61, 3-cyano-4-(4-cyano-3-methylphenoxy)-N-(5-fluoropyridin-2-yl)benzenesulfonamide] registered a 50% inhibitory concentration (IC50) of 39 nM. Turning to `Cc1cc(Oc2ccc(S(=O)(=O)Nc3ccc(F)cn3)cc2C#N)cc(C(C)C)c1` [Example 105, 3-cyano-N-(5-fluoropyridin-2-yl)-4-[3-methyl-5-(propan-2-yl)phenoxy]benzenesulfonamide], the half-inhibitory concentration (IC50) was greater than 10000 nM. On to `N#Cc1ccc(Oc2c(F)cc(S(=O)(=O)Nc3ccc(F)cn3)cc2C#N)cc1Cl` [Example 248, 4-(3-chloro-4-cyanophenoxy)-3-cyano-5-fluoro-N-(5-fluoropyridin-2-yl)benzenesulfonamide], for which the IC50 stood at 324 nM.

In the case of `N#Cc1cc(S(=O)(=O)Nc2ccc(F)cn2)ccc1Oc1cc(Cl)c(C#N)c(Cl)c1` [Example 241, 3-cyano-4-(3,5-dichloro-4-cyanophenoxy)-N-(5-fluoropyridin-2-yl)benzenesulfonamide], 3 nM corresponded to half-maximal inhibition (IC50).

`N#Cc1cc(S(=O)(=O)Nc2ccccn2)ccc1Oc1ccc(Cl)cc1I` [Example 80, 4-(4-chloro-2-iodophenoxy)-3-cyano-N-(pyridin-2-yl)benzenesulfonamide] returned a concentration for half-maximal inhibition (IC50) of 728 nM. Consider `COc1cccc(C)c1Oc1ccc(S(=O)(=O)Nc2ccc(F)cn2)cc1C#N` [Example 115, 3-cyano-N-(5-fluoropyridin-2-yl)-4-(2-methoxy-6-methylphenoxy)benzenesulfonamide], for which the half-maximal inhibitory concentration (IC50) was found to be 24 nM. In turn, `N#Cc1ccc(F)c(Oc2ccc(S(=O)(=O)Nc3ccc(F)cn3)cc2C#N)c1` [Example 69, 3-cyano-4-(5-cyano-2-fluorophenoxy)-N-(5-fluoropyridin-2-yl)benzenesulfonamide] came in with an IC50 of 1310 nM. In turn, `N#Cc1ccc(Oc2ccc(S(=O)(=O)Nc3cncnc3)cc2C#N)cc1Cl` [Example 96, 4-(3-chloro-4-cyanophenoxy)-3-cyano-N-(pyrimidin-5-yl)benzenesulfonamide] came in with a half-inhibitory concentration (IC50) greater than 10000 nM. `Cc1ccccc1Oc1ccc(S(=O)(=O)Nc2ccc(F)cn2)cc1C#N` [Example 186, 3-cyano-N-(5-fluoropyridin-2-yl)-4-(2-methylphenoxy)benzenesulfonamide]: it took 324 nM to reach half-maximal inhibition (IC50). Next, `N#Cc1cc(S(=O)(=O)Nc2ccc(F)cn2)ccc1Oc1cccc(F)c1F` [Example 16, 3-cyano-4-(2,3-difluorophenoxy)-N-(5-fluoropyridin-2-yl)benzenesulfonamide]: 218 nM.

For the molecule `Cc1cccnc1NS(=O)(=O)c1ccc(Oc2ccc(C#N)c(Cl)c2)c(C#N)c1` [Example 101, 4-(3-chloro-4-cyanophenoxy)-3-cyano-N-(3-methylpyridin-2-yl)benzenesulfonamide], the half-maximal inhibitory concentration (IC50) was 594 nM. As to `N#Cc1cc(S(=O)(=O)Nc2ccc(F)cn2)ccc1Oc1cccc(C(F)(F)F)c1F` [Example 29, 3-cyano-N-(5-fluoropyridin-2-yl)-4-[2-fluoro-3-(trifluoromethyl)phenoxy]benzenesulfonamide], the half-maximal inhibitory concentration (IC50) is greater than 10000 nM. `N#Cc1cc(S(=O)(=O)Nc2ccc(F)cn2)ccc1Oc1ccc(C(F)(F)F)nc1` [Example 196, 3-cyano-N-(5-fluoropyridin-2-yl)-4-{[6-(trifluoromethyl)pyridin-3-yl]oxy}benzenesulfonamide] registered an IC50 greater than 10000 nM.

For the molecule `Cc1ccc(Oc2ccc(S(=O)(=O)Nc3ccc(F)cn3)cc2C#N)c(Cl)c1` [Example 42, 4-(2-chloro-4-methylphenoxy)-3-cyano-N-(5-fluoropyridin-2-yl)benzenesulfonamide], the midpoint of inhibition, the IC50, lay at 383 nM.

Molecule `N#Cc1cc(S(=O)(=O)Nc2ccc(F)cn2)ccc1Oc1ccc(Cl)cc1OC(F)F` [Example 74, 4-[4-chloro-2-(difluoromethoxy)phenoxy]-3-cyano-N-(5-fluoropyridin-2-yl)benzenesulfonamide] returned an IC50 greater than 10000 nM. The figure for `COc1ccc(Cl)cc1Oc1ccc(S(=O)(=O)Nc2ccc(F)cn2)cc1C#N` [Example 106, 4-(5-chloro-2-methoxyphenoxy)-3-cyano-N-(5-fluoropyridin-2-yl)benzenesulfonamide] is greater than 10000 nM.

The values above are taken from US9067922B2, “Chemical compounds” (Pfizer Limited, priority 2013, dated 2015).
